Experimental data reported in patent publication US12011428B2, “Compositions and methods for stimulating ventilatory and/or respiratory drive” (priority 2022, dated 2024).

Experiments:
[1] = test system: freely-moving adult male Sprague—Dawley rats
[2] = test system: adult male Sprague—Dawley rats; conditions: rat, in vivo, iv
[3] = test system: adult male Sprague—Dawley rats; test: Body temperature (BT), rectal thermistor probe; conditions: for Body temperature, Post-drug: conscious rats
[4] = test system: adult male Sprague—Dawley rats; test: Behaviors observed after injection; assay type: in vivo, rat; conditions: GSHee 100 μmol/kg IV
[5] = test system: adult male Sprague—Dawley rats; test: Arterial blood gas measurements and A-a gradient; assay type: in vivo, rat; conditions: GSHee 100 μmol/kg IV alone
[6] = GSH 100 μmol/kg IV, % change from Pre-values
[7] = GSH 100 μmol/kg IV, sum of the 15 individual % change from pre values

Row | SMILES | Freq (frequency of breathing) ([1]; GSH 100 μmol/kg IV alone) | MV (minute ventilation) ([1]; GSH 100 μmol/kg IV alone) | TV (tidal volume) ([1]; GSH 100 μmol/kg IV alone) | Frequency (breaths/min), Peak drug response, % [1, 6] | Minute Ventilation (ml/min), Peak drug response, % [1, 6] | Tidal Volume (ml), Peak drug response, % [1, 6] | Frequency, Total drug response, % [1, 7] | Minute Ventilation, Total drug response, % [1, 7] | Tidal Volume, Total drug response, % [1, 7] | tail-flick latency (TFL) [2] | body temperature (BT) ([3]; 5 and 15 min post-injection of GSHee 100 μmol/kg IV) | Body temperature, Post-drug ([3]; 5 min after GSHee 100 μmol/kg IV) | Body temperature, Post-drug ([3]; 15 min after GSHee 100 μmol/kg IV) | behavioral signs (movement, squealing, scratching or sniffing) after injection [4] | A-a gradient [5] | arterial blood pCO2 [5] | arterial blood pH [5] | arterial blood pO2 [5] | arterial blood sO2 [5]
1 | N[C@@H](CCC(=O)N[C@@H](CS)C(=O)NCC(=O)O)C(=O)O [GSH, glutathione] | prompt but short-lived increase | short-lived increases | minor effects | +41% | 61% | +15% | +13% | 15% | +2% |  |  |  |  |  |  |  |  |  | 
2 | CCOC(=O)CNC(=O)[C@H](CS)NC(=O)CC[C@H](N)C(=O)O [GSHee, L-glutathione ethyl ester] |  |  |  |  |  |  |  |  |  | did not alter TFL | Neither vehicle nor GSHee affected BT | 37.9 ± 0.1 | 37.9 ± 0.1 | did not display any obvious behavioral signs | did not affect | minor but significant decrease | minor but significant increases | minor but significant increases | did not affect
